Assay results taken from ChEMBL document CHEMBL5550211 (J Med Chem, 2024).

Legend:
[1] = Substrate activity at P-gp in LLC-PK1 cells assessed as efflux ratio of apparent permeability from basolateral to apical side over apical to basolateral side; format: ADME, cell-based, Sus scrofa; details: pig
[2] = Substrate activity at BCRP in LLC-PK1 cells assessed as efflux ratio of apparent permeability from basolateral to apical side over apical to basolateral side; format: ADME, cell-based, Sus scrofa; details: pig
[3] = Apparent permeability across apical to basolateral side in LLC-PK1 cells; format: ADME, cell-based, Sus scrofa; details: pig
[4] = molecular target: T1, Serine/threonine-protein kinase B-raf (Homo sapiens, UniProt P15056, V600E); assay: Inhibition of BRAF V600E mutant in human A-375 cells assessed as reduction in ERK phosphorylation; format: cell-based
[5] = molecular target: T1, Serine/threonine-protein kinase B-raf; assay: Inhibition of 6-His tagged BRAF V600E mutant (445 to 723 residues) (unknown origin)
[6] = Dissociation constant, pKa of the compound; format: physicochemical

T1 sequence (P15056 2-766 V600E limits assumed): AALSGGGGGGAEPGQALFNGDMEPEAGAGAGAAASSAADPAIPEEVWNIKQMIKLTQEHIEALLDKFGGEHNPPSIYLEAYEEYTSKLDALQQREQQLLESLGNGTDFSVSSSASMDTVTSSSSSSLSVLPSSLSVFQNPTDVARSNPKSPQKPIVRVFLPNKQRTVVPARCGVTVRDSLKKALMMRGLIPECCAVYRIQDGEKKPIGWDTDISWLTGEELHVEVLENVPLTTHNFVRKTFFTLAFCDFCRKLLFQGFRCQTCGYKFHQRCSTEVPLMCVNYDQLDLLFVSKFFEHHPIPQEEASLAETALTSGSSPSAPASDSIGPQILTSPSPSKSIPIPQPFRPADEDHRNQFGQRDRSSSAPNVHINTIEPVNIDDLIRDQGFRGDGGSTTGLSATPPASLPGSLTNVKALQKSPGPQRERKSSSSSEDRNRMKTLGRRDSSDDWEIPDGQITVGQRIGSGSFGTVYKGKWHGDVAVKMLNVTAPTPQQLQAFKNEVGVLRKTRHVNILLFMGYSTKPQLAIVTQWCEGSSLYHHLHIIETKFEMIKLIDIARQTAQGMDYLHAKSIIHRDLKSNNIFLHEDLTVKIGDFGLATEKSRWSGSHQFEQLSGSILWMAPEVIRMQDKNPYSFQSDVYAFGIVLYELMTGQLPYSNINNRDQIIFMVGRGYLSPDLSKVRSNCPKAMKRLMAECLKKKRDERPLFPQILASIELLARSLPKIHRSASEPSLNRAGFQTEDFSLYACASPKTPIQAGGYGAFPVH

Ratio [1] | Ratio [2] | Papp A→B [3] | IC50 [4] | IC50 [5] | pKa [6] | Structure (SMILES)
4.1 | 6 | 39 ×10⁻⁶ cm/s | 27.3 nM | 13.8 nM |  | CCCS(=O)(=O)Nc1ccc(F)c(Nc2ccc3ncn(C)c(=O)c3c2)c1Cl
26.3 |  | 11 ×10⁻⁶ cm/s |  |  |  | COC(=O)N[C@@H](C)CNc1nccc(-c2cn(C(C)C)nc2-c2cc(Cl)cc(NS(C)(=O)=O)c2F)n1 [ENCORAFENIB]
 |  | 24 ×10⁻⁶ cm/s |  |  |  | CCCS(=O)(=O)Nc1ccc(F)c(Nc2ccc3ncn(C)c(=O)c3c2Cl)c1Cl
1.3 | 1.2 | 28 ×10⁻⁶ cm/s | 35.5 nM | 14.5 nM | 7.88 | CCCS(=O)(=O)Nc1ccc(F)c(Nc2ccc3ncn(C)c(=O)c3c2C)c1Cl
7.1 | 18.9 | 48 ×10⁻⁶ cm/s | 142 nM | 60.3 nM |  | CCCS(=O)(=O)Nc1ccc(Cl)c(Nc2ccc3ncn(C)c(=O)c3c2)c1F
1.2 | 0.8 | 27 ×10⁻⁶ cm/s | 113 nM | 77.4 nM |  | CCC(C)S(=O)(=O)Nc1ccc(F)c(Nc2ccc3ncn(C)c(=O)c3c2C)c1Cl (stereo not given)
1.1 | 1.6 | 21 ×10⁻⁶ cm/s | 285 nM | 17.5 nM |  | CCCS(=O)(=O)Nc1ccc(F)c(Nc2ccc3ncn(CC4CC4)c(=O)c3c2C)c1Cl
 |  | 19 ×10⁻⁶ cm/s |  |  |  | CCCS(=O)(=O)Nc1ccc(F)c(Sc2ccc3ncn(C)c(=O)c3c2)c1F

More lines, now with the values behind:

Structure (SMILES) | Ratio [1] | Ratio [2] | Papp A→B [3] | IC50 [4] | IC50 [5] | pKa [6]
Cc1c(Nc2c(F)ccc(NS(=O)(=O)CC3CC3)c2Cl)ccc2ncn(C)c(=O)c12 | 1.5 | 1.1 | 29 ×10⁻⁶ cm/s | 93.6 nM | 46.1 nM | 
CCCS(=O)(=O)Nc1ccc(F)c(Nc2ccc3ncn(C4CC4)c(=O)c3c2C)c1Cl | 1.6 | 1.6 | 25 ×10⁻⁶ cm/s | 61.5 nM | 11.7 nM | 
CCCS(=O)(=O)Nc1ccc(F)c(N(CC)c2ccc3ncn(C)c(=O)c3c2)c1F | 1.5 | 1.5 | 19 ×10⁻⁶ cm/s | 197 nM | 197 nM | 
CCS(=O)(=O)Nc1ccc(F)c(Nc2ccc3ncn(C)c(=O)c3c2C)c1Cl | 1.8 | 1.3 | 36 ×10⁻⁶ cm/s | 169 nM | 182 nM | 
CCCS(=O)(=O)Nc1ccc(Cl)c(N(C)c2ccc3ncn(C)c(=O)c3c2)c1F | 4.1 | 3.9 | 37 ×10⁻⁶ cm/s | 178 nM | 28.4 nM | 
CCCS(=O)(=O)Nc1ccc(F)c(N(C)c2ccc3ncn(C)c(=O)c3c2)c1Cl | 3.6 | 1.3 | 28 ×10⁻⁶ cm/s | 177 nM | 54.9 nM | 
CCCS(=O)(=O)Nc1ccc(F)c(Nc2ccc3ncn(C(C)C)c(=O)c3c2C)c1Cl | 1.4 | 1.5 | 20 ×10⁻⁶ cm/s | 187 nM | 20 nM | 
CCCS(=O)(=O)Nc1ccc(F)c(N(C)c2ccc3ncn(C)c(=O)c3c2)c1F | 3.2 | 2.6 | 41 ×10⁻⁶ cm/s | 73.7 nM | 69.2 nM | 
CCCS(=O)(=O)Nc1ccc(F)c(Oc2ccc3ncn(C)c(=O)c3c2)c1F |  |  | 29 ×10⁻⁶ cm/s |  |  | 
CCCS(=O)(=O)Nc1ccc(F)c(Nc2ccc3ncn(C)c(=O)c3c2)c1F | 11.1 | 21.3 | 26 ×10⁻⁶ cm/s | 69.1 nM | 88 nM | 
Cc1c(Nc2c(F)ccc(NS(=O)(=O)C3CC3)c2Cl)ccc2ncn(C)c(=O)c12 |  |  | 22 ×10⁻⁶ cm/s |  |  | 
CC(C)(C)c1nc(-c2cccc(NS(=O)(=O)c3c(F)cccc3F)c2F)c(-c2ccnc(N)n2)s1 [DABRAFENIB] | 10.1 | 11.7 | 29 ×10⁻⁶ cm/s |  |  | 
CCCS(=O)(=O)Nc1ccc(F)c(Nc2ccc3ncn(C)c(=O)c3c2OC)c1Cl |  |  | 22 ×10⁻⁶ cm/s |  |  | 
Cc1c(Nc2c(F)ccc(NS(=O)(=O)CC(C)C)c2Cl)ccc2ncn(C)c(=O)c12 | 1.6 | 1.3 | 27 ×10⁻⁶ cm/s | 122 nM | 50.8 nM | 
CCCS(=O)(=O)Nc1ccc(F)c(Nc2ccc3ncn(C)c(=O)c3c2F)c1Cl |  |  | 33 ×10⁻⁶ cm/s |  |  | 
CCCS(=O)(=O)Nc1ccc(F)c(Nc2ccc3ncn(CC)c(=O)c3c2C)c1Cl | 0.9 | 0.9 | 30 ×10⁻⁶ cm/s | 27 nM | 3.61 nM | 
CCCS(=O)(=O)Nc1ccc(F)c(C(=O)c2c[nH]c3ncc(-c4ccc(Cl)cc4)cc23)c1F [VEMURAFENIB] | 21.7 | 15.2 | 3 ×10⁻⁶ cm/s |  |  | 
